Laboratory results from paper PMC7726444 (Frontiers in Pharmacology, 2020).

Tests used:
Format in all cases: biochemical
full-length WT TPH1 = target: T1, full-length WT TPH1 (Homo sapiens, UniProt P17752); assay: Tryptophan hydroxylase enzymatic activity assay, full-length WT TPH1; settings: (95% confidence interval)
T1 construct: made in house
T1 sequence (P17752 1-444): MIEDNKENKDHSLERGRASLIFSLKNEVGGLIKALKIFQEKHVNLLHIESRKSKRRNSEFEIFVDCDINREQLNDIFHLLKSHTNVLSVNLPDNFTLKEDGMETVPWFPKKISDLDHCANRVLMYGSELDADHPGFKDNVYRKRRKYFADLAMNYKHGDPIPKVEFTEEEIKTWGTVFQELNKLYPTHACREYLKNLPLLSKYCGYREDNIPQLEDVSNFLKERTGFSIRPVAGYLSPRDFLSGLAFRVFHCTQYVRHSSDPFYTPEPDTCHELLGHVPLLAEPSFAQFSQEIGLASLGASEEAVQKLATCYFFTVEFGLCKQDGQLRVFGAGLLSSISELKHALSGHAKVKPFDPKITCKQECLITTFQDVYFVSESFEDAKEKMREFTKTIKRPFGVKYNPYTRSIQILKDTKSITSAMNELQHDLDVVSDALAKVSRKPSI
Source text: The […] human TPH1 gene was cloned into the pET23a vector (six-His C-terminal fusion; Merck KGaA, Darmstadt, Germany) between the NdeI and XhoI restriction sites, and expressed and purified as described previously ([Wang et al., 2002]; [Betari et al., 2020]). Truncated TPH1 was used since the full-length enzyme tends to aggregate in bacteria and yeast extracts and during purification ([Wang et al., 2002]; [McKinney et al., 2005]), resulting in a much lower protein yield compared to the truncated version. Enzymatic activity of truncated TPH1 is equal to that of the full-length protein ([Betari et al., 2020]). […] Full-length WT TPH1 and TPH2 were expressed as N-terminal six-His-maltose-binding protein fusion proteins in pETM-41 and were cleaved and purified as described previously ([McKinney et al., 2004]; [Winge et al., 2007]). Human WT PAH and TH were expressed and isolated as described previously ([[…] et al., 2012]; [Bezem et al., 2016]). […] Control experiments were performed in the presence of 1% DMSO in the absence of ligand. […] 5-hydroxy tryptophan (5-OH-Trp) was quantified using High Performance Liquid Chromatography (HPLC) essentially as described previously with minor modifications ([McKinney et al., 2004]; [[…] et al., 2020]).

WT human PAH = target: T2, WT human PAH (Homo sapiens, UniProt P00439); assay: PAH enzymatic activity assay (selectivity); settings: up to a concentration of 100 µM
T2 construct: made in house
T2 sequence (P00439 1-452): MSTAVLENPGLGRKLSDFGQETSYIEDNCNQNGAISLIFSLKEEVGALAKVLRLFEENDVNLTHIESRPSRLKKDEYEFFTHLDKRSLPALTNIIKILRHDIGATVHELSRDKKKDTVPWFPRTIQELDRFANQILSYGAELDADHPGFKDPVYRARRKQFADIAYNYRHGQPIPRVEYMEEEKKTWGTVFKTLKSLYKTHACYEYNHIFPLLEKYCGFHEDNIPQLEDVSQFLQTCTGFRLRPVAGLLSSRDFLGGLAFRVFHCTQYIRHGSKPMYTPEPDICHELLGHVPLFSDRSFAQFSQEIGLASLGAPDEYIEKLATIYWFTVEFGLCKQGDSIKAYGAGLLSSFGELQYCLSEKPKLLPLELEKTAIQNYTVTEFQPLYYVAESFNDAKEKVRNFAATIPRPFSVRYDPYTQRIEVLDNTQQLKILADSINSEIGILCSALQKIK
Method: (§1) Full-length WT TPH1 and TPH2 were expressed as N-terminal six-His-maltose-binding protein fusion proteins in pETM-41 and were cleaved and purified as described previously ([McKinney et al., 2004]; [Winge et al., 2007]). Human WT PAH and TH were expressed and isolated as described previously ([Flydal et al., 2012]; [Bezem et al., 2016]).
(§2) Purified WT human TPH2, PAH, and TH were used for this purpose, and the activity assays for each enzyme was performed as described previously ([Haavik and Flatmark, 1980]; [Winge et al., 2007]; [Aubi et al., 2015]; [Bezem et al., 2016]).

WT full-length TPH2 = target: T3, WT full-length TPH2 (Homo sapiens, UniProt Q8IWU9); assay: Tryptophan hydroxylase enzymatic activity assay, WT full-length TPH2; settings: mean (95% confidence interval), three experiments in duplicate
T3 construct: both the doubly truncated TPH1 protein and WT full-length TPH2 protein; made in house
T3 sequence (Q8IWU9 1-490): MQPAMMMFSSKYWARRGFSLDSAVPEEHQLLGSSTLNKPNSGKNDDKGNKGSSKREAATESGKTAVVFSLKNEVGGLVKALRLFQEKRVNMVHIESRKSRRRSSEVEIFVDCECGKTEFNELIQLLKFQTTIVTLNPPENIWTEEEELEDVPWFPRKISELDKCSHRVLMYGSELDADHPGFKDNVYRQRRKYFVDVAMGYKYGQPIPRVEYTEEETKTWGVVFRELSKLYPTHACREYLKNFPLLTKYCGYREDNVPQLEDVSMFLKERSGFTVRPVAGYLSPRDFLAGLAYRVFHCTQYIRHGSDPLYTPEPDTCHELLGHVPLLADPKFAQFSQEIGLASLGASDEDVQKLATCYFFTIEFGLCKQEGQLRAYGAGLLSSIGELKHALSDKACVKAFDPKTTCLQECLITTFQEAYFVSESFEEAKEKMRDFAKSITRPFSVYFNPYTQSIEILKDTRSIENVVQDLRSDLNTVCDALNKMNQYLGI

WT human TH = target: T4, WT human TH (Homo sapiens, UniProt P07101); assay: TH enzymatic activity assay (selectivity); settings: up to a concentration of 100 µM
T4 construct: made in house
T4 sequence (P07101 1-497 isoform P07101-3): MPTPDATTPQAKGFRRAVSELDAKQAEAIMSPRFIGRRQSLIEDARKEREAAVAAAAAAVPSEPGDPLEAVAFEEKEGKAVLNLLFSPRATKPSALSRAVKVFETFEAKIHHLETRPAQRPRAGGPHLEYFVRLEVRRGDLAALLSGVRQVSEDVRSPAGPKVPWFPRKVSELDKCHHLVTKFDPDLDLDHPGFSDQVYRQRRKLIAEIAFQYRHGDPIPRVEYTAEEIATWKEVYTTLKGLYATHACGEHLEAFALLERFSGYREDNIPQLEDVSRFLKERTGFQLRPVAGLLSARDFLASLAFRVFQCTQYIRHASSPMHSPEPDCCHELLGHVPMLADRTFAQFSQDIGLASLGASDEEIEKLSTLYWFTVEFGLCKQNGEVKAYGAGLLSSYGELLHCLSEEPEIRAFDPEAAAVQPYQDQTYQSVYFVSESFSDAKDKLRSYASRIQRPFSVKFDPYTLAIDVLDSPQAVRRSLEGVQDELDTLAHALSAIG
Method: as §1, §2

## COc1ccc2[nH]c([S+]([O-])Cc3ncc(C)c(OC)c3C)nc2c1 (stereo not shown) [Omeprazole]
full-length WT TPH1
  IC50: 3.55 µM
WT human PAH
  inhibition of PAH: no inhibition
WT full-length TPH2
  IC50: 4.3 µM
WT human TH
  inhibition of TH: no inhibition
